Test systems include ACHN renal; COLO 205 colon; HOP-92 NSCLC; SK-OV-3 ovarian; T-47D breast; TK-10 renal; U251 CNS; UACC-257 melanoma; MALME-3M melanoma; SW-620 colon.
What all share (test): inhibition of tumour cell growth, NCI panel, 48 h

“And” between values parts separate entries of the source, which are not always exact repeats. Equal entries are not always repeated.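 How tested: cells in 96-well plates exposed to compound for 48 hours at five concentrations. Here, GI50 denotes the concentration required for 50% inhibition of growth. At the TGI there is no net growth.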 Some results are limits rather than exact numbers.

In the case of `COC(=O)/C=C1/SC(=Nc2cccc(Cl)c2)N(CCc2c[nH]c3ccc(O)cc23)C1=O`, the GI50 in the test with ACHN renal was 1.73 µM; with COLO 205 colon, 2.05 µM; in the test with HOP-92 NSCLC, 2 µM; in the test on SK-OV-3 ovarian it was 2.24 µM; in the test on T-47D breast it was 2.03 µM; in the test on TK-10 renal it was 2.29 µM. The results for the GI50 with U251 CNS and in the test with UACC-257 melanoma were 1.76 µM and 1.96 µM, respectively. Further, the TGI in the test on ACHN renal worked out at 3.33 µM; with COLO 205 colon it was 4.04 µM; with HOP-92 NSCLC, 4.67 µM; with SK-OV-3 ovarian, 5.01 µM; in the test with T-47D breast it was 7.15 µM; in the test on TK-10 renal, 5.65 µM. The TGI in the test with U251 CNS is 3.51 µM; in the test on UACC-257 melanoma, 3.99 µM.

For the compound `O=C1c2ccccc2-c2c3c(cc4ccnc1c24)OCO3`, the TGI in the test with ACHN renal is 24 µM and 29.3 µM; in the test with COLO 205 colon, 82.5 µM and 16 µM; with HOP-92 NSCLC, 39.9 µM and 37.1 µM; in the test with MALME-3M melanoma it was 11 µM and 15.6 µM; in the test on SK-OV-3 ovarian, 84.4 µM and > 100 µM; with SW-620 colon, 23.4 µM and > 100 µM. The TGI in the test on U251 CNS was 35.1 µM and > 100 µM; in the test with UACC-257 melanoma, 39.2 µM and 11.7 µM. Moreover, the GI50 is 3.02 µM and 10.2 µM in the test on TK-10 renal; 5.23 µM and 2.59 µM in the test on UACC-257 melanoma.

Consider `CC(Oc1ccc2c(-c3ccc(Cl)cc3)cc(=O)oc2c1)C(=O)O` (stereo unspecified), for which the TGI in the test on ACHN renal, in the test with COLO 205 colon, in the test on HOP-92 NSCLC, in the test with MALME-3M melanoma, in the test on SK-OV-3 ovarian and with SW-620 colon was above 100 µM in each case. In addition, the TGI in the test with TK-10 renal, with U251 CNS and in the test on UACC-257 melanoma was above 100 µM throughout.

On to `CCOC(=O)c1ccc(-n2cnc(-c3ccc([N+](=O)[O-])cc3)c2)cc1`, for which the TGI in the test with ACHN renal, with COLO 205 colon, in the test with MALME-3M melanoma, in the test with SK-OV-3 ovarian, with SW-620 colon and in the test on T-47D breast was above 100 µM each time. The TGI with TK-10 renal, with U251 CNS and in the test on UACC-257 melanoma was above 100 µM in each case.

Consider `CC(C)(C)C(=O)N1C(C(=O)O)Cc2ccccc2[C@@H]1Cc1ccccc1` (stereo partly specified), for which the TGI with ACHN renal, in the test with COLO 205 colon, in the test on HOP-92 NSCLC, in the test on MALME-3M melanoma, in the test on SK-OV-3 ovarian and with SW-620 colon was above 100 µM in each case. Also, the TGI in the test on TK-10 renal, in the test on U251 CNS and in the test on UACC-257 melanoma was above 100 µM each time.

Take `CC(C)(C)OC(=O)C1C(=O)NC(=O)CC1CC(OCc1ccccc1)C(OCc1ccccc1)C(COCc1ccccc1)OCc1ccccc1` (stereo unspecified): the GI50 was 60.2 µM and 18.8 µM with ACHN renal; 25.4 µM and 11.4 µM with MALME-3M melanoma; 74.5 µM and 23.4 µM in the test on SW-620 colon; 19.6 µM and 5.39 µM with U251 CNS; 47.8 µM and 15.3 µM with UACC-257 melanoma. Besides, the TGI is above 100 µM in the test on ACHN renal; > 100 µM and 68.1 µM with HOP-92 NSCLC; > 100 µM and 45.4 µM with MALME-3M melanoma; above 100 µM with SW-620 colon; 81 µM with T-47D breast; above 100 µM in the test with TK-10 renal. The TGI with U251 CNS is > 100 µM and 56.3 µM; with UACC-257 melanoma, above 100 µM.

For the compound `CCN(CC)CCN(CC)CC.CCN(CC)CCN(CC)CC.[Cu+2].[Cu+2].[O-][Cl+3]([O-])([O-])[O-].[OH3+].[OH3+]`, the GI50 in the test on ACHN renal was above 100 µM; in the test on COLO 205 colon, above 100 µM; with HOP-92 NSCLC it was above 100 µM; with MALME-3M melanoma, above 100 µM; in the test with SK-OV-3 ovarian, 13.9 µM; in the test on SW-620 colon, above 100 µM. Further, the GI50 was 96.7 µM in the test with TK-10 renal, 17.2 µM with U251 CNS and above 100 µM in the test with UACC-257 melanoma. The TGI is above 100 µM in the test on ACHN renal; above 100 µM in the test with COLO 205 colon; above 100 µM in the test on HOP-92 NSCLC; above 100 µM in the test on MALME-3M melanoma; 27.3 µM in the test with SK-OV-3 ovarian; above 100 µM in the test with SW-620 colon. The TGI in the test with TK-10 renal is above 100 µM; in the test on U251 CNS it was 32.1 µM; in the test with UACC-257 melanoma, above 100 µM.

Take `O=[N+]([O-])c1nccn1CC(O)c1ccccc1` (stereo unspecified): the TGI with ACHN renal, in the test on COLO 205 colon, with HOP-92 NSCLC, in the test with MALME-3M melanoma, with SK-OV-3 ovarian and in the test with SW-620 colon was above 100 µM throughout. Further, the TGI in the test on TK-10 renal, with U251 CNS and with UACC-257 melanoma was above 100 µM throughout.

For the compound `C[C@@H]1C[C@H](N)C[C@H](c2ccncc2NC(=O)c2ccc(F)c(-c3c(F)cccc3F)n2)C1`, the GI50 is 12.1 µM and > 10 µM with ACHN renal; 4.38 µM and 3.84 µM with COLO 205 colon; 10.5 µM and > 10 µM with MALME-3M melanoma; 12.7 µM and > 10 µM in the test on SK-OV-3 ovarian; 11.6 µM and 9.63 µM in the test on SW-620 colon; 10.5 µM and 8.5 µM with T-47D breast. Moreover, the GI50 with TK-10 renal was 13.1 µM and > 10 µM; in the test on U251 CNS, 12 µM and > 10 µM. Besides, the TGI was 24.5 µM and > 10 µM in the test on ACHN renal; 22.1 µM and > 10 µM with COLO 205 colon; 24.3 µM and > 10 µM in the test on MALME-3M melanoma; 26.8 µM and > 10 µM with SK-OV-3 ovarian; 25.2 µM and > 10 µM in the test with SW-620 colon; 28.5 µM and > 10 µM in the test with T-47D breast. The TGI in the test with TK-10 renal is 26.8 µM and > 10 µM; with U251 CNS it was 24.7 µM and > 10 µM.

`CCOC(=O)C1(C(=O)OCC)C(C(C)(C)C)=C(C)c2ccccc21`: the TGI with ACHN renal is 28 µM; in the test with COLO 205 colon it was 26.8 µM; in the test on HOP-92 NSCLC, 16.7 µM; in the test on MALME-3M melanoma, 28.9 µM; in the test on SK-OV-3 ovarian, 69.5 µM; in the test on SW-620 colon it was 28.8 µM. In addition, the TGI in the test on TK-10 renal came out at 72.4 µM; in the test on U251 CNS, 30.1 µM; with UACC-257 melanoma it was 44.3 µM.

As for `O=C1Nc2c(Cl)cc(Cl)cc2/C1=N/N=C/c1ccco1`, the TGI in the test on ACHN renal was above 100 µM; in the test on COLO 205 colon, 73.3 µM; in the test on HOP-92 NSCLC it was above 100 µM; with MALME-3M melanoma, above 100 µM; with SK-OV-3 ovarian, above 100 µM; with SW-620 colon, above 100 µM. In addition, the TGI in the test with TK-10 renal, in the test with U251 CNS and with UACC-257 melanoma was above 100 µM in each case.

For `CC(C)(C)C1=CC(=N/N=c2\scc(-c3ccccc3)n2-c2ccccc2)C=C(C(C)(C)C)C1=O`, the TGI in the test on ACHN renal, with COLO 205 colon, in the test with HOP-92 NSCLC, in the test on MALME-3M melanoma, in the test with SK-OV-3 ovarian and with SW-620 colon was above 100 µM throughout. For the same compound, the TGI in the test on TK-10 renal, in the test with U251 CNS and with UACC-257 melanoma was above 100 µM throughout.
